Target: T1, Peroxisome proliferator-activated receptor gamma (Homo sapiens, UniProt P37231)
T1 sequence (P37231 whole entry): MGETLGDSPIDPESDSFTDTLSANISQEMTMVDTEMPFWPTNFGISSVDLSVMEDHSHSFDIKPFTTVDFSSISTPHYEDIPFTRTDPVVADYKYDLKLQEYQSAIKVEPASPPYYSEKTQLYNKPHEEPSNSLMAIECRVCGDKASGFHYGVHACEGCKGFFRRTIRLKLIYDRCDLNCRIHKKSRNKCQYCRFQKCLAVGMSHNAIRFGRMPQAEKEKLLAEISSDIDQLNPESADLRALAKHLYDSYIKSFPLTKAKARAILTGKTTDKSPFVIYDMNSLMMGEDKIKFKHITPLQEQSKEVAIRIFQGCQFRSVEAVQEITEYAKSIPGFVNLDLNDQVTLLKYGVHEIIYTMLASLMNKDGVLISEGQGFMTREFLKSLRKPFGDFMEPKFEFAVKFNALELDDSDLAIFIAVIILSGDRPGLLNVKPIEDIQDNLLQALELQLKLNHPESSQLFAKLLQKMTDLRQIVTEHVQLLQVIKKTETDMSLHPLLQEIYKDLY
Assay: Agonist activity at N-terminal His-tagged human PPARgamma ligand binding domain by fluorescence polarization assay

| SMILES | IC50 |
| --- | --- |
| Cc1ccc(COc2ccccc2/C=C2/SC(=S)N(CCC(=O)O)C2=O)cc1 | 1320 nM |
| O=C(O)CCN1C(=O)/C(=C\c2ccc(Cl)cc2Cl)SC1=S | 876 nM |

Reference: ChEMBL document CHEMBL1156253 (Eur J Med Chem, 2010)
